# Data from patent US10113185B2, “Utilization of phosphoketolase in the production of mevalonate, isoprenoid precursors, and isoprene” (Danisco US Inc., priority 2011, dated 2018).
# Where two headings read alike, the source gives them in different places.
# T1: Bifidobacterium longum phosphoketolase (B. longum PKL), SEQ ID NO: 4 (encoded by SEQ ID NO:3) (Bifidobacterium longum, UniProt A0ACD7USP0)
# T1 sequence (A0ACD7USP0 1-825): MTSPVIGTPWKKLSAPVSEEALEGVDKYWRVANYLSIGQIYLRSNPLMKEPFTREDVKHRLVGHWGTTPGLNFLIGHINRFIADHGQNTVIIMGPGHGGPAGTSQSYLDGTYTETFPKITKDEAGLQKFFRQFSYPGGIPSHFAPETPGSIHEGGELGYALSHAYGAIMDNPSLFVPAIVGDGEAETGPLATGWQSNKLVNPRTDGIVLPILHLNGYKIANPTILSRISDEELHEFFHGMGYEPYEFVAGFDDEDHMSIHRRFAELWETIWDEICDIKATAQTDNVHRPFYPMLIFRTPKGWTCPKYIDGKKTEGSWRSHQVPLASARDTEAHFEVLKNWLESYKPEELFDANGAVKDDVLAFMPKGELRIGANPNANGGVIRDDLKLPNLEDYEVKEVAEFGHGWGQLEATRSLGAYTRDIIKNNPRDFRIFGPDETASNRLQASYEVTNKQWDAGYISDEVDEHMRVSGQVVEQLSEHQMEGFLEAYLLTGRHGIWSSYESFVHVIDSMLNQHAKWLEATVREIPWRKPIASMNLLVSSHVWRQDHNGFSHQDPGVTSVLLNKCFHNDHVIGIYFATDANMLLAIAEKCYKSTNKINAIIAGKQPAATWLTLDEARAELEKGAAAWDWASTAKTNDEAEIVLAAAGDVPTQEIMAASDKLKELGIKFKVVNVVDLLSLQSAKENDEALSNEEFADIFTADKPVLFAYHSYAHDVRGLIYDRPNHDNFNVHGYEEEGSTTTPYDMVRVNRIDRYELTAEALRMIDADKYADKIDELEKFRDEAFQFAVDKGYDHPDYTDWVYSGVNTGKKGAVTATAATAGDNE
# B1: Bifidobacterium longum phosphoketolase (B. longum PKL), SEQ ID NO: 4 (encoded by SEQ ID NO:3) (Bifidobacterium longum subsp. infantis ATCC 15697 = JCM 1222 = … (protein)
# chain: T1 sequence (A0ACD7USP0 1-825)
# How the values were obtained:
# [1] = target: Lactobacillus plantarum phosphoketolase; conditions: cited from earlier work
# [2] = test system: Enterococcus gallinarum phosphoketolase (E. gallinarum PKL), encoded by SEQ ID NO:17; test: Kinetic analysis of purified E. gallinarum phosphoketolase (ferric hydroxamate assay, AcP formation); assay type: biochemical
# Protocol: The amino acid sequence of Enterococcus gallinarum PKL was obtained from GeneBank and was processed in GeneArt optimization software for optimized expression in E. coli. Two base pairs were added in front of the PKL gene to form a NcoI site and a Sad site was inserted just after the stop codon. The synthesized PKL gene was cloned into GeneArt kanamycin-resistant cloning plasmid. The E. gallinarum PKL gene (SEQ ID NO:17) was then subcloned into a BspHI/SacI-digested pTrcHis2B vector (Life Technologies, Carlsbad, Calif.) to form plasmid pCMP1321.
# Cells were grown in LB medium with 50 ug/ml carbenecillin at 37 C prior to induction. […] For purification, E. gallinarum PKL cell pellets were resuspended in 50 mM MES pH 6.0, 50 mM NaCL, 0.5 mM AEBSF, 0.1 mg/ml DNaseI. […] Clarified lysate containing PKL from E. gallinarum was loaded onto a DEAE HiTrap FF column equilibrated in 50 mM MES, 50 mM NaCl, pH 6 and eluted with a gradient to 50 mM MES, 1M NaCl, pH 6. The resulting fractions were analyzed by SDS-PAGE. Fractions containing PKL were pooled and desalted using a G25 desalting column into 50 mM MES, 50 mM NaCL pH 6.0. Further purification was achieved using a MonoQ 10/100 GL column equilibrated in 50 mM MES, 50 mM NaCL, pH 6 with a salt gradient to 1M NaCl. Fractions containing PKL were pooled and analyzed by SDS PAGE, quantitation was achieved using A280 a molar extinction coefficient of 136980 determined by Vector NTI.
# Time points were taken at various intervals. […] An AcP standard curve ranging between 12.5 and 0.2 mM was generated for quantitation.
# [3] = test system: Bifidobacterium lactis phosphoketolase; conditions: Meile et al. (2001), cited from earlier work
# [4] = target: T1, Bifidobacterium longum phosphoketolase (B. longum PKL), SEQ ID NO: 4 (encoded by SEQ ID NO:3); conditions: 37° C., pH 6, saturating Pi (20 mM), enzyme 0.25 μM, time measured 60
# [5] = test system: Bifidobacterium longum BB536 phosphoketolase; conditions: Grill et al. (1995), cited from earlier work
# [6] = test system: Bifidobacterium dentium ATCC27534 phosphoketolase; conditions: Grill et al. (1995), cited from earlier work
# [7] = test system: Bifidobacterium animalis ATCC 25527 phosphoketolase; conditions: Grill et al. (1995), cited from earlier work
# [8] = test system: Bifidobacterium globosum ATCC 25864 phosphoketolase; conditions: Grill et al. (1995), cited from earlier work
# [9] = test system: Bifidobacterium breve phosphoketolase; conditions: cited from earlier work
# [10] = test system: Lactobacillus paraplantarum C7 phosphoketolase; conditions: Jeong et al. (2007), cited from earlier work
# [11] = test system: Leuconostoc oenos phosphoketolase; conditions: Veiga-da-Cunha et al. (1993), cited from earlier work
# [12] = substrate: O=P(O)(O)OC[C@H]1OC(O)(CO)[C@@H](O)[C@@H]1O; test: purified protein, by the assay type; conditions: other: 37° C., pH 6, saturating Pi (20 mM), enzyme 0.25 μM, time measured 60
# [13] = 37° C., pH 6, saturating Pi (20 mM), enzyme 0.5 μM, time measured 30
molecule,measurement,setting,value
"O=C[C@H](O)[C@H](O)COP(=O)(O)O [E4P, erythrose 4-phosphate]",Ki,"[1]; for F6P as a substrate, read-out: Kis^E4P",8 mM
same,Ki,"[1]; for F6P as a substrate, read-out: Kll^E4P",4.4 mM
"O=P(O)(O)OC[C@H]1OC(O)(CO)[C@@H](O)[C@@H]1O (stereo partly drawn) [F6P, fructose 6-phosphate]",Km,[2]; [13],2.86 mM
same,Vmax,[2]; [13],0.71 µM/s
same,kcat,[2]; [13],1.4 s⁻¹
same,kcat,[2]; saturating Pi,1.4 s⁻¹
same,kcat (F6P),[3],kcat(F6P) = 8 s^−1
same,Km,[3]; read-out: Km(F6P),10 mM
same,kcat,[4],16.6 s⁻¹
same,kcat (F6P),[5],kcat (F6P) = 39 s^−1
same,Km,[5]; read-out: Km(F6P),26 mM
same,kcat (F6P),[6],kcat (F6P) = 33 s^−1
same,Km,[6]; read-out: Km(F6P),23 mM
same,kcat (F6P),[7],kcat (F6P) = 33 s^−1
same,Km,[7]; read-out: Km(F6P),11.5 mM
same,kcat (F6P),[8],kcat (F6P) = 40 s^−1
same,Km,[8]; read-out: Km(F6P),12.5 mM
same,kcat (F6P),[1]; Yevenes and Frey (2008),kcat(F6P) = 2.7 s^−1
same,Km,"[1]; read-out: Km(F6P), Yevenes and Frey (2008)",24 mM
same,kcat (F6P),[9]; Suzuki et al. (2010),kcat (F6P) = 22.4 s^−1
same,Km,"[9]; read-out: Km(F6P), Suzuki et al. (2010)",9.7 mM
same,kcat (F6P),[10],kcat(F6P) = 738 s^−1
same,Km,[10]; read-out: Km(F6P),5.1 mM
same,kcat (F6P),[11],kcat (F6P) = 0.2 s−1
same,Km,[11]; read-out: Km(F6P),22 mM
"O=P(O)(O)O [Pi, inorganic phosphate]",Km,"[1]; for F6P as a substrate, read-out: Km(Pi)",2.9 mM
same,Km,"[1]; for X5P as a substrate, read-out: Km(Pi)",7.5 mM
same,Km,"[9]; for F6P as a substrate, read-out: KmPi",1.2 mM
"O=C(CO)[C@@H](O)[C@H](O)COP(=O)(O)O [X5P, xylulose 5-phosphate]",Km,[2]; [13],5.81 mM
same,Vmax,[2]; [13],2.18 µM/s
same,kcat,[2]; [13],4.4 s⁻¹
same,kcat,[2]; saturating Pi,4.4 s⁻¹
same,kcat(X5P),[3],kcat(X5P) = 42 s^−1
same,Km,[3]; read-out: Km(X5P),55 mM
same,kcat(X5P),[1]; Yevenes and Frey (2008),kcat(X5P) = 6.1 s^−1
same,Km,"[1]; Yevenes and Frey (2008), read-out: Km(X5P)",3.6 mM
same,kcat(X5P),[9]; Suzuki et al. (2010),kcat (X5P) = 44.8 s^−1
same,kcat(X5P),[11],kcat (X5P) = 3.5 s^−1
same,Km,[11]; read-out: Km(X5P),1.6 mM
B1,Km,[12],21.16 mM
same,Vmax,[12],265 µM/min
same,kcat,[12],16.6 s⁻¹
